Results: ChEMBL document CHEMBL5046233, “Nitroxoline and its derivatives are potent inhibitors of metallo-β-lactamases” (Eur J Med Chem, 2022)
Active and inactive are the calls of the source. The calls are words filed in the database; no cut-off is given here.

Columns and labels:
[1] = Inhibition of recombinant NDM-1 (unknown origin) using fluorocillin as substrate at 10 uM incubated for 30 mins by fluorescence based assay; conditions: Bacteria
[2] = Inhibition of recombinant NDM-1 (unknown origin) using fluorocillin as substrate at 3 uM incubated for 30 mins by fluorescence based assay; conditions: Bacteria
Bacteria [3] = experiment: Inhibition of recombinant VIM-1 (unknown origin) using fluorocillin as substrate at 10 uM incubated for 30 mins by fluorescence based assay
Bacteria [4] = experiment: Inhibition of recombinant IMP-1 (unknown origin) using fluorocillin as substrate at 30 uM incubated for 30 mins by fluorescence based assay
Bacteria [5] = experiment: Inhibition of recombinant IMP-1 (unknown origin) using fluorocillin as substrate at 3 uM incubated for 30 mins by fluorescence based assay
Bacteria [6] = experiment: Inhibition of recombinant NDM-1 (unknown origin) using fluorocillin as substrate in presence of ZnCl2 incubated for 30 mins by fluorescence based assay
Klebsiella pneumoniae [7] = experiment: Antimicrobial activity against Klebsiella pneumoniae clinical isolate T2301 expressing NDM-1 assessed as inhibition of bacterial growth by CLSI protocol based broth microdilution assay; type: functional
Klebsiella pneumoniae [8] = experiment: Potentiation of imipenem-induced antibacterial activity against Klebsiella pneumoniae clinical isolate T2301 expressing NDM-1 assessed as fold change in imipenem MIC at 32 mg/L by CLSI protocol based broth microdilution assay; type: functional
Escherichia coli [9] = experiment: Potentiation of imipenem-induced antibacterial activity against Escherichia coli clinical isolate T2228 expressing VIM-1 assessed as fold change in imipenem MIC at 32 mg/L by CLSI protocol based broth microdilution assay; type: functional
Klebsiella pneumoniae [10] = experiment: Potentiation of cefuroxime-induced antibacterial activity against Klebsiella pneumoniae clinical isolate T2301 expressing NDM-1 assessed as cefuroxime MIC at 32 mg/L by CLSI protocol based broth microdilution assay; type: functional
Klebsiella pneumoniae [11] = experiment: Potentiation of ceftazidime-induced antibacterial activity against Klebsiella pneumoniae clinical isolate T2301 expressing NDM-1 assessed as ceftazidime MIC at 32 mg/L by CLSI protocol based broth microdilution assay; type: functional
Klebsiella pneumoniae [12] = experiment: Potentiation of meropenem-induced antibacterial activity against Klebsiella pneumoniae clinical isolate T2301 expressing NDM-1 assessed as meropenem MIC at 32 mg/L by CLSI protocol based broth microdilution assay; type: functional
Escherichia coli [13] = experiment: Potentiation of piperacillin-induced antibacterial activity against Escherichia coli clinical isolate T2228 expressing VIM-1 assessed as piperacillin MIC at 32 mg/L by CLSI protocol based broth microdilution assay; type: functional
Escherichia coli [14] = experiment: Potentiation of cefuroxime-induced antibacterial activity against Escherichia coli clinical isolate T2228 expressing VIM-1 assessed as cefuroxime MIC at 32 mg/L by CLSI protocol based broth microdilution assay; type: functional
Enterobacter cloacae [15] = experiment: Potentiation of imipenem-induced antibacterial activity against Enterobacter cloacae T2311 expressing NDM-1 assessed as fold change in imipenem MIC at 32 mg/L by CLSI protocol based broth microdilution assay; type: functional
Escherichia coli [16] = experiment: Potentiation of imipenem-induced antibacterial activity against Escherichia coli T2351 expressing NDM-5 assessed as fold change in imipenem MIC at 32 mg/L by CLSI protocol based broth microdilution assay; type: functional
Klebsiella pneumoniae [17] = experiment: Potentiation of imipenem-induced antibacterial activity against Klebsiella pneumoniae T2216 expressing VIM-1 assessed as fold change in imipenem MIC at 32 mg/L by CLSI protocol based broth microdilution assay; type: functional
Pseudomonas aeruginosa [18] = experiment: Potentiation of imipenem-induced antibacterial activity against Pseudomonas aeruginosa T2283 expressing VIM-2 assessed as fold change in imipenem MIC at 32 mg/L by CLSI protocol based broth microdilution assay; type: functional
Pseudomonas aeruginosa [19] = experiment: Potentiation of imipenem-induced antibacterial activity against Pseudomonas aeruginosa T2229 expressing SPM-1 assessed as fold change in imipenem MIC at 32 mg/L by CLSI protocol based broth microdilution assay; type: functional
Enterobacter cloacae [20] = experiment: Potentiation of imipenem-induced antibacterial activity against Enterobacter cloacae T2218 expressing GIM-1 assessed as fold change in imipenem MIC at 32 mg/L by CLSI protocol based broth microdilution assay; type: functional
Escherichia coli [21] = experiment: Potentiation of imipenem-induced antibacterial activity against Escherichia coli T2435 expressing KPC-2 assessed as fold change in imipenem MIC at 32 mg/L by CLSI protocol based broth microdilution assay; type: functional
Klebsiella pneumoniae [22] = experiment: Potentiation of imipenem-induced antibacterial activity against Klebsiella pneumoniae T2432 expressing KPC-9 assessed as fold change in imipenem MIC at 32 mg/L by CLSI protocol based broth microdilution assay; type: functional
Escherichia coli [23] = experiment: Potentiation of imipenem-induced antibacterial activity against Escherichia coli T2433 expressing OXA-48 assessed as fold change in imipenem MIC at 32 mg/L by CLSI protocol based broth microdilution assay; type: functional
Escherichia coli [24] = experiment: Antimicrobial activity against Escherichia coli T2359 expressing VIM-1 assessed as assessed as inhibition of bacterial growth at 0.5XMIC measured after 24 hrs by time-kill assay; type: functional, organism-based
Escherichia coli [25] = experiment: Potentiation of imipenem-induced antibacterial activity against Escherichia coli T2359 expressing NDM-1 assessed as imipenem MIC at 32 mg/L by CLSI protocol based broth microdilution assay; type: functional
Escherichia coli [26] = experiment: Potentiation of imipenem-induced antibacterial activity against Escherichia coli T2544 expressing VIM-1 assessed as imipenem MIC at 32 mg/L by CLSI protocol based broth microdilution assay; type: functional
Klebsiella pneumoniae [27] = experiment: Potentiation of imipenem-induced antibacterial activity against Klebsiella pneumoniae clinical isolate T2301 expressing NDM-1 assessed as imipenem MIC at 32 mg/L by CLSI protocol based broth microdilution assay; type: functional
Escherichia coli [28] = experiment: Synergistic antibacterial activity against Escherichia coli T2359 expressing NDM-1 assessed as fractional inhibitory concentration index in presence of imipenem by checkerboard assay; type: functional
Serratia marcescens = experiment: Potentiation of imipenem-induced antibacterial activity against Serratia marcescens T2352 expressing NDM-1 assessed as imipenem MIC at 32 mg/L by CLSI protocol based broth microdilution assay; type: functional
Citrobacter freundii = experiment: Potentiation of imipenem-induced antibacterial activity against Citrobacter freundii T2354 expressing VIM-4 assessed as imipenem MIC at 32 mg/L by CLSI protocol based broth microdilution assay; type: functional
Pseudomonas aeruginosa [29] = experiment: Potentiation of imipenem-induced antibacterial activity against Pseudomonas aeruginosa T2357 expressing VIM-1 assessed as imipenem MIC at 32 mg/L by CLSI protocol based broth microdilution assay; type: functional
Pseudomonas aeruginosa [30] = experiment: Potentiation of imipenem-induced antibacterial activity against Pseudomonas aeruginosa T2217 expressing VIM-2 assessed as imipenem MIC at 32 mg/L by CLSI protocol based broth microdilution assay; type: functional
Enterobacter cloacae [31] = experiment: Potentiation of imipenem-induced antibacterial activity against Enterobacter cloacae T2218 expressing GIM-1 assessed as imipenem MIC at 32 mg/L by CLSI protocol based broth microdilution assay; type: functional
Escherichia coli [32] = experiment: Potentiation of imipenem-induced antibacterial activity against Escherichia coli T2435 expressing KPC-2 assessed as imipenem MIC at 32 mg/L by CLSI protocol based broth microdilution assay; type: functional
Klebsiella pneumoniae [33] = experiment: Potentiation of imipenem-induced antibacterial activity against Klebsiella pneumoniae T2432 expressing KPC-9 assessed as imipenem MIC at 32 mg/L by CLSI protocol based broth microdilution assay; type: functional

Compound: N#CCN(Cc1ccccc1)Cc1cc([N+](=O)[O-])c2cccnc2c1O
- inhibition [1]: 88%
- inhibition [2]: 68%
- inhibition (Bacteria [3]): 100%
- inhibition (Bacteria [4]): 98%
- inhibition (Bacteria [5]): 59%
- inhibition (Bacteria [6]): inactive
- MIC (Klebsiella pneumoniae [7]): > 0.066 mg/L
- fold change (FC) (Klebsiella pneumoniae [8]): 64
- fold change (FC) (Escherichia coli [9]): 8
- MIC (Klebsiella pneumoniae [10]): 4.1 mg/L
- MIC (Klebsiella pneumoniae [11]): 0.064 mg/L
- MIC (Klebsiella pneumoniae [12]): 0.25 mg/L
- MIC (Escherichia coli [13]): 1 mg/L
- MIC (Escherichia coli [14]): 0.002 mg/L
- fold change (FC) (Enterobacter cloacae [15]): 16
- fold change (FC) (Escherichia coli [16]): 8
- fold change (FC) (Klebsiella pneumoniae [17]): 8
- fold change (FC) (Pseudomonas aeruginosa [18]): 32
- fold change (FC) (Pseudomonas aeruginosa [19]): 16
- fold change (FC) (Enterobacter cloacae [20]): 4
- fold change (FC) (Escherichia coli [21]): 1
- fold change (FC) (Klebsiella pneumoniae [22]): 2
- fold change (FC) (Escherichia coli [23]): 1
- Activity (Escherichia coli [24]): inactive
- MIC (Escherichia coli [25]): 0.0005 mg/L
- MIC (Escherichia coli [26]): 0.0005 mg/L
- MIC (Klebsiella pneumoniae [27]): 0.25 mg/L
- fractional inhibitory concentration index (FICI) (Escherichia coli [28]): 0.265
- MIC (Serratia marcescens): 0.25 mg/L
- MIC (Citrobacter freundii): 0.25 mg/L
- MIC (Pseudomonas aeruginosa [29]): 0.008 mg/L
- MIC (Pseudomonas aeruginosa [30]): 0.016 mg/L
- MIC (Enterobacter cloacae [31]): 0.0005 mg/L
- MIC (Escherichia coli [32]): 0.004 mg/L
- MIC (Klebsiella pneumoniae [33]): 0.016 mg/L
